Source: PMC6270562, “Design, Synthesis and Trypanocidal Evaluation of Novel 1,2,4-Triazoles-3-thiones Derived from Natural Piperine” (Molecules, 2013)

Tests used:
[1] = tested on: epimastigote form of Y strain T. cruzi; assay: Anti-epimastigote effect (direct count of live epimastigotes after 7 days); format: cell-based, Trypanosoma cruzi; settings: mean of triplicate
Protocol: (§1) Trypanosoma cruzi (Y strain) was obtained from the Fundação Oswaldo Cruz (Rio de Janeiro, Brazil) culture collection, and maintained in the Laboratory of Glycobiology (UFRJ, Rio de Janeiro, Brazil) facilities. Epimastigote forms were maintained by weekly transfers at 28 °C in brain-heart-infusion (BHI) medium (Acumedia, Lansing, MI, USA), supplemented with 10 mg of hemin (Sigma, St. Louis, MO, USA), 20 mg of folic acid L^−1 (Sigma) and 10% heat-inactivated fetal calf serum (FCS) (BHI-FCS medium, Gibco, Grand Island, NY, USA). Tissue culture-derived trypomastigotes were obtained after infection of confluent monolayers of Vero cells (kidney epithelial cells extracted from African green monkeys) with blood trypomastigotes (Y strain) to establish the intracellular cycle and maintained in RPMI 1640 medium containing 10% FCS under an atmosphere of 5% CO2 at 37 °C. The tissue culture-derived trypomastigotes were used to infect Mø in vitro to evaluate the toxic effects of the drugs.
For evaluation of the anti-epimastigote effects, parasites (1 × 10^5 cells per mL) were subcultured in the absence or presence of different concentrations (0.5 to 25 μg.mL^−1) of the drugs 9a–9m, from a 5 mg mL^−1 stock solution in DMSO (Sigma). The parasites were incubated in BHI-FCS medium with or without drugs in a final volume of 1.0 mL in 24-well plates (TPP, Trasadingen, Switzerland), and after 7 days, the toxic effects of the drugs were quantified by the direct count of the live epimastigotes in a Neubauer chamber.
(§2) The 50% inhibitory concentrations (IC50) values shown in the Table 1 represent the mean of experiments carried out in triplicate. The IC50 of all compounds were determined by linear regression analysis using the program IGOR Pro 2.03 (WaveMetrics, Inc, Lake Oswego, OR, USA).

amastigotes of T. cruzi = assay: Anti-amastigote effect in infected peritoneal macrophages; format: cell-based; settings: Trypanosoma cruzi, Peritoneal macrophage, in Mus musculus; T. cruzi Y strain, intracellular amastigotes in BALB/c peritoneal Mø, 0.5-5.0 µg mL−1; ≥ = maximum concentration allowed by trypan blue exclusion assay
Protocol: as §1
Resident peritoneal Mø from non-infected BALB/c mice were harvested and cultured as described above. Adhered Mø were infected with T. cruzi trypomastigotes at a 10:1 parasite/macrophage ratio and incubated at 37 °C under 5% CO2 for 1 h. […] After, monolayers were washed with PBS at 37 °C, fixed in methanol, and stained with Giemsa (Sigma). The amastigote survival was determined by the counting of 200 cells in triplicate, the percentage of infected cells was analyzed, as well as the number of amastigotes per macrophage and the endocytic index of the infected cells.
as §2

[2] = tested on: peritoneal macrophages (Mø) from Balb/c mice; assay: Cytotoxicity to macrophages (trypan blue dye exclusion assay); format: cell-based; settings: murine macrophages, 0.5-5 μg mL−1, 72 h
Protocol: The evaluation of the toxic effects of the compounds was carried out as previously described. Murine peritoneal Mø were seeded (1 × 10^6 cells per well) in 24-well plates with 1 mL of RPMI medium containing 10% FCS. […] The five drugs were assayed in increasing concentrations (0.5, 1.0, 2.5, 5.0 µg mL^−1). Afterwards, the cells were washed with PBS, and RPMI was added to the culture before the addition of vital dye trypan blue in a final concentration of 0.01%. The toxic effects of the drugs were monitored by the count of 200 cells in a Neubauer chamber where plasma membrane permeability was evaluated.

## Cn1c(/C=C/C=C/c2ccc3c(c2)OCO3)n[nH]c1=S [9a, 5-[(1E,3E)-4-(1,3-Benzodioxol-5-yl)buta-1,3-dien-1-yl]-4-methyl-2,4-dihydro-3H-1,2,-triazole-3-thione]
[1]; Trypanosoma cruzi, 168 h
  IC50: 44.2 ± 7.3 µM
other
  melting point: 220 to 222 °C

## CCn1c(/C=C/C=C/c2ccc3c(c2)OCO3)n[nH]c1=S [9b, 5-[(1E,3E)-4-(1,3-Benzodioxol-5-yl)buta-1,3-dien-1-yl]-4-ethyl-2,4-dihydro-3H-1,2,4-triazole-3-thione]
[1]; Trypanosoma cruzi, 168 h
  IC50: 50.2 ± 10.8 µM
other
  melting point: 208 to 209 °C

## CC(C)n1c(/C=C/C=C/c2ccc3c(c2)OCO3)n[nH]c1=S [9c, 5-[(1E,3E)-4-(1,3-Benzodioxol-5-yl)buta-1,3-dien-1-yl]-4-isopropyl-2,4-dihydro-3H-1,2,4-triazole-3-thione]
Amastigotes of T. cruzi
  IC50: 11.1 ± 1.26 µM
[1]; Trypanosoma cruzi, 168 h
  IC50: < 30 µM
[1]
  IC50: 27 ± 6.98 µM
other
  melting point: 210 to 211 °C

## CCCCn1c(/C=C/C=C/c2ccc3c(c2)OCO3)n[nH]c1=S [9d, 5-[(1E,3E)-4-(1,3-Benzodioxol-5-yl)buta-1,3-dien-1-yl]-4-butyl-2,4-dihydro-3H-1,2,4-triazole-3-thione]
Amastigotes of T. cruzi
  IC50: ≥ 15.2 µM
other
  melting point: 173 to 174 °C

## CCCCCCn1c(/C=C/C=C/c2ccc3c(c2)OCO3)n[nH]c1=S [9e, 5-[(1E,3E)-4-(1,3-Benzodioxol-5-yl)buta-1,3-dien-1-yl]-4-hexyl-2,4-dihydro-3H-1,2,4-triazole-3-thione]
Amastigotes of T. cruzi
  IC50: ≥ 14 µM
[1]; Trypanosoma cruzi, 168 h
  IC50: < 30 µM
[1]
  IC50: 15.4 ± 4.47 µM
other
  melting point: 124 to 125 °C

## S=c1[nH]nc(/C=C/C=C/c2ccc3c(c2)OCO3)n1C1CCCCC1 [9f, 5-[(1E,3E)-4-(1,3-Benzodioxol-5-yl)buta-1,3-dien-1-yl]-4-cyclohexyl-2,4-dihydro-3H-1,2,4-triazole-3-thione]
Amastigotes of T. cruzi
  IC50: 8.87 ± 2.39 µM
[1]; Trypanosoma cruzi, 168 h
  IC50: < 30 µM
[1]
  IC50: 18.3 ± 5.21 µM
other
  melting point: 192 to 194 °C
[2]
  toxicity on host cells: low toxic effects

## S=c1[nH]nc(/C=C/C=C/c2ccc3c(c2)OCO3)n1-c1ccccc1 [9g, 5-[(1E,3E)-4-(1,3-Benzodioxol-5-yl)buta-1,3-dien-1-yl]-4-phenyl-2,4-dihydro-3H-1,2,4-triazole-3-thione]
[1]; Trypanosoma cruzi, 168 h
  IC50: 39 ± 8.88 µM
other
  melting point: 244 to 245 °C

## S=c1[nH]nc(/C=C/C=C/c2ccc3c(c2)OCO3)n1Cc1ccccc1 [9h, 5-[(1E,3E)-4-(1,3-Benzodioxol-5-yl)buta-1,3-dien-1-yl]-4-benzyl-2,4-dihydro-3H-1,2,4-triazole-3-thione]
[1]; Trypanosoma cruzi, 168 h
  IC50: 39.4 ± 6.88 µM
other
  melting point: 187 to 188 °C

## COc1cc(-n2c(/C=C/C=C/c3ccc4c(c3)OCO4)n[nH]c2=S)cc(OC)c1OC [9i, 5-[(1E,3E)-4-(1,3-Benzodioxol-5-yl)buta-1,3-dien-1-yl]-4-(3,4,5-trimethoxyphenyl)-2,4-dihydro-3H-1,2,4-triazole-3-thione]
[1]; Trypanosoma cruzi, 168 h
  IC50: 35.3 ± 6.26 µM
other
  melting point: 242 to 243 °C

## CC(C)(C)n1c(/C=C/C=C/c2ccc3c(c2)OCO3)n[nH]c1=S [9j, 5-[(1E,3E)-4-(1,3-Benzodioxol-5-yl)buta-1,3-dien-1-yl]-4-tert-butyl-2,4-dihydro-3H-1,2,4-triazole-3-thione]
[1]; Trypanosoma cruzi, 168 h
  IC50: 50.8 ± 10.6 µM
other
  melting point: 183 to 184 °C

## CSc1ccc(-n2c(/C=C/C=C/c3ccc4c(c3)OCO4)n[nH]c2=S)cc1 [9k, 5-[(1E,3E)-4-(1,3-Benzodioxol-5-yl)buta-1,3-dien-1-yl]-4-[4-(methylthio)phenyl]-2,4-dihydro-3H-1,2,4-triazole-3-thione]
[1]; Trypanosoma cruzi, 168 h
  IC50: 40.8 ± 10.5 µM
other
  melting point: 209 to 211 °C

## COc1cccc(-n2c(/C=C/C=C/c3ccc4c(c3)OCO4)n[nH]c2=S)c1 [9l, 5-[(1E,3E)-4-(1,3-Benzodioxol-5-yl)buta-1,3-dien-1-yl]-4-(3-methoxyphenyl)-2,4-dihydro-3H-1,2,4-triazole-3-thione]
[1]; Trypanosoma cruzi, 168 h
  IC50: 48 ± 6.06 µM
other
  melting point: 248 to 249 °C

## FC(F)(F)c1ccc(-n2c(/C=C/C=C/c3ccc4c(c3)OCO4)n[nH]c2=S)cc1 [9m, 5-[(1E,3E)-4-(1,3-Benzodioxol-5-yl)buta-1,3-dien-1-yl]-4-[4-(trifluoromethyl)phenyl]-2,4-dihydro-3H-1,2,4-triazole-3-thione]
Amastigotes of T. cruzi
  IC50: 9.59 ± 2.87 µM
[1]; Trypanosoma cruzi, 168 h
  IC50: < 30 µM
[1]
  IC50: 18.5 ± 3.95 µM
other
  melting point: 232 to 233 °C

## O=C(Cn1ccnc1[N+](=O)[O-])NCc1ccccc1 [Benznidazole, benznidazole, reference compound]
Amastigotes of T. cruzi
  IC50: 2.5 ± 0.21 µM
[1]; Trypanosoma cruzi, 168 h
  IC50: 2.2 ± 0.16 µM
